Legend:
[1] = target: T1, Full-length, GST-tagged, human CaMKIIδ (Homo sapiens, UniProt Q13557); test: CaMKIIδ binding assay (TR-FRET with BODIPY-labeled probe ligand); details: Table 2
T1 construct: Full-Length, Glutathione-S-Transferase(GST)-Tagged, Human CaMKIIδ was purchased from Carna Biosciences; purchased Carna Biosciences 02-111
Method in brief: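 TR-FRET probe-displacement binding: 0.5 nM GST-CaMKIIδ with 10 μg/mL calmodulin, 1 mM CaCl2, 0.21 nM Tb-anti-GST Ab and 300 nM BODIPY probe in HEPES pH 7.6 buffer. Eight-point 4-fold dilutions, 1 hr at room temperature. IC50 from logistic fit; 100% inhibition defined by 3 μM parent compound.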

[2] = system: phosphorylation of CaMKII-specific site of phospholamban (Thr17, PLN) in the heart; test: In vivo cardiac CaMKII inhibition (P-PLN Thr17 in rat left ventricle, Western blotting); details: po, male SD rat left ventricle, vs vehicle-treated group, read-out: Reduction rate of P-PLN; for inhibition in vivo at 30 mg/kg: 30 mg/kg p.o., 2 hr after administration
Description: To evaluate potency of test compounds to inhibit cardiac CaMKII kinase in vivo, phosphorylation levels of CaMKII-specific sites of phospholamban (Thr17, PLN) were measured in the heart of rats administered with test compounds at various doses.
Test compounds were suspended in 0.5% [w/v] methylcellulose/water solution and administered (10 or 30 mg/kg) to male CD (SD) IGS rat (6-8 weeks old, n=4) by the p.o. route (5 mL/kg). At 2-4 hours after the administration, rats were sacrificed and the hearts were harvested. After washing the isolated hearts with ice-cold saline, connective tissues were removed on ice, and the isolated left ventricle were frozen into liquid nitrogen gas and stored at −80° C.
The left ventricle samples were homogenized in RIPA-buffer containing phosphatase inhibitors and protease inhibitors. Samples were analyzed by Western blotting using anti-P-PLN (Thr17, Santa Cruz Biotechnology, sc-17024-R) antibody. The band intensities were quantified using an imaging system and were normalized relative to the vehicle-treated group.

[3] = target: T2, Human full-length CaMKIIδ (Homo sapiens, UniProt Q13557); test: Human CaMKII enzyme inhibition assay (radiometric kinase assay); assay type: biochemical; details: 3 μM compound; 500 nM ATP; 0.5 nM CaMKIIδ; read-out: CaMKIIδ inhibitory activity (%) at 3 μM
T2 construct: Human full-length CaMKIIδ (Cat #02-111) was obtained from Carna Biosciences; GST; purchased Carna Biosciences 02-111
Description: In Vitro CaMKIIδ Inhibitory Activity was Evaluated by an Enzyme Assay.
Human CaMKII Enzyme Inhibition Assay
Kinase assay for CaMKIIs was performed using the radiometric assay. Human full-length CaMKIIδ (Cat #02-111) was obtained from Carna Biosciences (Kobe, Japan).
Enzyme reactions were performed in 25 mM HEPES, pH 7.5, with 5 mM magnesium chloride, 1 mM calcium chloride, 10 μg/mL Calmodulin, 2 mM DTT, 0.01% Tween20 and 500 nM ATP (0.2 μCi/well of [γ-33P] ATP) containing 0.5 nM CaMKIIδ and 0.1 μM autophosphorylation peptide (KKALRRQETVDAL)(Toray Research Center).
After incubating the enzyme, peptide, and compounds for 5 min, kinase reactions were initiated by adding ATP, followed by incubation for 60 min at room temperature in a total volume of 50 μL. The reactions were terminated by the addition of 10% trichloroacetic acid (final concentration). The [γ-33P]-phosphorylated proteins were filtered in a Harvest Plate (Merck Millipore) with a Cell Harvester (PerkinElmer) and then free [γ-33P] ATP was washed out with 3% phosphoric acid. The plates were dried, followed by the addition of 40 μl of MicroScintO (PerkinElmer). The radioactivity was counted by a TopCount scintillation counter (PerkinElmer). The signals of the reaction without enzyme were defined as 100% inhibitory activity and those of the reaction without inhibitors as 0% inhibitory activity. In vitro CaMKIIδ inhibitory activity was evaluated by % inhibitory activity of 3 μM compound concentration.

[4] = CaMKIIδ binding assay, activity given as class A/B/C

T1 sequence (Q13557 1-478 isoform Q13557-12): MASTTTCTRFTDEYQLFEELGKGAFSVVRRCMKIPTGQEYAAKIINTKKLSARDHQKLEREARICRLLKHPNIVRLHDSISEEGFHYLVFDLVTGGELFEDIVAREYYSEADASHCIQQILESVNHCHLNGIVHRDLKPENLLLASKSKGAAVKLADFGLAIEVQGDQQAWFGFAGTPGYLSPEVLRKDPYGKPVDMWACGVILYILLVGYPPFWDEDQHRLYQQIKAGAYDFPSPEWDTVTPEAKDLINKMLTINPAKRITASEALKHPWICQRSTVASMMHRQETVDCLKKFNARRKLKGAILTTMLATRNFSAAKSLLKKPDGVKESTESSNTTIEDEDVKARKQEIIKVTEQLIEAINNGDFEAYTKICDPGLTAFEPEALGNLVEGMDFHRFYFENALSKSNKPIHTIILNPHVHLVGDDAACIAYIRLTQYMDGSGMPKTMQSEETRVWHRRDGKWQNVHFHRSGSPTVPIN

C[C@@H](Cn1cnnn1)Oc1cc(-c2cnc(Nc3cn([C@H]4CC[C@H](N5CCOCC5)CC4)nc3OCC(F)(F)F)nc2)ccc1Cl [Example 772, 5-(3-(((S)-1-(1H-tetrazol-1-yl)propan-2-yl)oxy)-4-chlorophenyl)-N-(1-(trans-4-morpholinocyclohexyl)-3-(2,2,2-trifluoroethoxy)-1H-pyrazol-4-yl)pyrimidin-2-amine]
IC50 [1, 4]: < 10 nM
inhibition in vivo at 30 mg/kg [2]: > 50%

C[C@@H](Cn1cnnn1)Oc1cc(-c2cnc(Nc3cn(C4CCN(C5CCOCC5)CC4)nc3OCC(F)(F)F)nc2)ccc1Cl [Example 677, (S)-5-(3-((1-(1H-tetrazol-1-yl)propan-2-yl)oxy)-4-chlorophenyl)-N-(1-(1-(tetrahydro-2H-pyran-4-yl)piperidin-4-yl)-3-(2,2,2-trifluoroethoxy)-1H-pyrazol-4-yl)pyrimidin-2-amine]
IC50 ([1]; activity class for CaMKIIδ): < 10 nM
inhibition in vivo at 30 mg/kg [2]: > 50%

CC(C)c1nn([C@H]2CC[C@H](N3CCOCC3)CC2)cc1Nc1ncc(-c2ccc(Cl)c(O[C@@H](C)Cn3cnnn3)c2)cn1 [Example 843, 5-(3-(((S)-1-(1H-tetrazol-1-yl)propan-2-yl)oxy)-4-chlorophenyl)-N-(3-isopropyl-1-(trans-4-morpholinocyclohexyl)-1H-pyrazol-4-yl)pyrimidin-2-amine]
IC50 [1, 4]: < 10 nM
inhibition in vivo at 10 mg/kg ([2]; 10 mg/kg p.o., 4 hr after administration): > 50%

C[C@@H](Cn1cnnn1)Oc1cc(-c2cnc(Nc3cn([C@H]4CC[C@H](N5CCOCC5)CC4)nc3OCC(F)F)nc2)ccc1Cl [Example 806, 5-(3-(((S)-1-(1H-tetrazol-1-yl)propan-2-yl)oxy)-4-chlorophenyl)-N-(3-(2,2-difluoroethoxy)-1-(trans-4-morpholinocyclohexyl)-1H-pyrazol-4-yl)pyrimidin-2-amine]
IC50 [1, 4]: < 10 nM
inhibition in vivo at 30 mg/kg [2]: > 50%

C[C@@H](Cn1cnnn1)Oc1cc(-c2cnc(Nc3cn([C@H]4CC[C@H](N5CCOCC5)CC4)nc3C(F)(F)F)nc2)ccc1Cl [Example 695, 5-(3-(((S)-1-(1H-tetrazol-1-yl)propan-2-yl)oxy)-4-chlorophenyl)-N-(1-(trans-4-morpholinocyclohexyl)-3-(trifluoromethyl)-1H-pyrazol-4-yl)pyrimidin-2-amine]
IC50 ([1]; activity class for CaMKIIδ): < 10 nM
inhibition in vivo at 30 mg/kg [2]: > 50%

COc1cc(C(=O)N2CC3(CN(C)C3)C2)ccc1Nc1ncc(-c2ccc(C#N)c(O[C@@H](C)Cn3cncn3)c2)cn1 [Example 147, 4-(2-((2-methoxy-4-((6-methyl-2,6-diazaspiro[3.3]hept-2-yl)carbonyl)phenyl)ami-no)pyrimidin-5-yl)-2-(((2S)-1-(1H-1,2,4-triazol-1-yl)propan-2-yl)oxy)benzonitrile]
inhibition at 3 µM [3]: 95%

C[C@@H](Cn1cncn1)Oc1cc(-c2cnc(Nc3cnn(C(C)(C)C)c3)nc2)ccc1C#N [Example 373, 4-(2-((1-tert-butyl-1H-pyrazol-4-yl)amino)pyrimidin-5-yl)-2-(((2S)-1-(1H-1,2,4-triazol-1-yl)propan-2-yl)oxy)benzonitrile]
inhibition at 3 µM [3]: 98%

COc1cc(N2CCN(C3COC3)CC2)c(F)cc1Nc1ncc(-c2ccc(Cl)c(O[C@@H](C)Cn3cnnn3)c2)cn1 [Example 211, 5-(4-chloro-3-(((2S)-1-(1H-tetrazol-1-yl)propan-2-yl)oxy)phenyl)-N-(5-fluoro-2-methoxy-4-(4-(oxetan-3-yl)piperazin-1-yl)phenyl)pyrimidin-2-amine]
inhibition at 3 µM [3]: 98%

COc1cc(N2CCC(N3CCCCC3)CC2)ccc1Nc1ncc(-c2ccc(C#N)c(O[C@@H](C)Cn3cnnn3)c2)cn1 [Example 45, 4-(2-((4-(1,4′-bipiperidine-1′-yl)-2-methoxyphenyl)amino)pyrimidin-5-yl)-2-(((2S)-1-(1H-tetrazol-1-yl)propan-2-yl)oxy)benzonitrile]
inhibition at 3 µM [3]: 99%

COc1cc(N2CCC(N3CCOCC3)CC2)ccc1Nc1ncc(-c2ccc(C#N)c(O[C@@H](C)Cn3ncnn3)c2)cn1 [Example 5, 4-(2-((2-methoxy-4-(4-(morpholin-4-yl)piperidin-1-yl)phenyl)amino)pyrimidin-5-yl)-2-(((2S)-1-(2H-tetrazol-2-yl)propan-2-yl)oxy)benzonitrile]
inhibition at 3 µM [3]: 98%

COc1cc(N2CCC(N3CCOCC3)CC2)c(F)cc1Nc1ncc(-c2ccc(Cl)c(O[C@@H](C)Cn3cnnn3)c2)cn1 [Example 205, 5-(4-chloro-3-(((2S)-1-(1H-tetrazol-1-yl)propan-2-yl)oxy)phenyl)-N-(5-fluoro-2-methoxy-4-(4-(morpholin-4-yl)piperidin-1-yl)phenyl)pyrimidin-2-amine]
inhibition at 3 µM [3]: 99%

C[C@@H](Cc1ccn[nH]1)Oc1cc(-c2cnc(Nc3cnn(C)c3)nc2)ccc1C#N [Example 412, 4-(2-((1-methyl-1H-pyrazol-4-yl)amino)pyrimidin-5-yl)-2-(((2S)-1-(1H-pyrazol-5-yl)propan-2-yl)oxy)benzonitrile]
inhibition at 3 µM [3]: 96%

COc1cc(N2CCC(N3CCNCC3)CC2)ccc1Nc1ncc(-c2ccc(C#N)c(O[C@@H](C)Cn3cnnn3)c2)cn1 [Example 34]
inhibition at 3 µM [3]: 99%

CC(C)n1cc(Nc2ncc(-c3ccc(C#N)c(O[C@@H](C)Cn4ncnn4)c3)cn2)cn1 [Example 371, 4-(2-((1-isopropyl-1H-pyrazol-4-yl)amino)pyrimidin-5-yl)-2-(((2S)-1-(2H-tetrazol-2-yl)propan-2-yl)oxy)benzonitrile]
inhibition at 3 µM [3]: 94%

COc1nn(C)cc1Nc1ncc(-c2ccc(C#N)c(O[C@@H](C)Cn3cncn3)c2)cn1 [Example 375, 4-(2-((3-methoxy-1-methyl-1H-pyrazol-4-yl)amino)pyrimidin-5-yl)-2-(((2S)-1-(1H-1,2,4-triazol-1-yl)propan-2-yl)oxy)benzonitrile]
inhibition at 3 µM [3]: 97%

COc1cc(N2CCC(N3CCOCC3)CC2)ccc1Nc1ncc(-c2ccc(Cl)c(O[C@@H](C)Cn3ccnc3)c2)cn1 [Example 58, 5-(4-chloro-3-(((2S)-1-(1H-imidazol-1-yl)propan-2-yl)oxy)phenyl)-N-(2-methoxy-4-(4-(morpholin-4-yl)piperidin-1-yl)phenyl)pyrimidin-2-amine]
inhibition at 3 µM [3]: 99%

COc1cc(N2CCC(N3C4CCC3COC4)CC2)ccc1Nc1ncc(-c2ccc(Cl)c(O[C@@H](C)Cn3cnnn3)c2)cn1 [Example 210, 5-(4-chloro-3-(((2S)-1-(1H-tetrazol-1-yl)propan-2-yl)oxy)phenyl)-N-(2-methoxy-4-(4-(3-oxa-8-azabicyclo[3.2.1]oct-8-yl)piperidin-1-yl)phenyl)pyrimidin-2-amine]
inhibition at 3 µM [3]: 100%

COc1nc(N2CCC(N3CCOCC3)CC2)ncc1Nc1ncc(-c2ccc(C#N)c(O[C@@H](C)Cn3cnnn3)c2)cn1 [Example 56, 4-(2-((4-methoxy-2-(4-(morpholin-4-yl)piperidin-1-yl)pyrimidin-5-yl)amino)pyrimidin-5-yl)-2-(((2S)-1-(1H-tetrazol-1-yl)propan-2-yl)oxy)benzonitrile]
inhibition at 3 µM [3]: 98%

COc1cc(N2CCN(C3COC3)CC2)ccc1Nc1ncc(-c2ccc(Cl)c(O[C@@H](C)Cn3cnnn3)c2)cn1 [Example 197, 5-(4-chloro-3-(((2S)-1-(1H-tetrazol-1-yl)propan-2-yl)oxy)phenyl)-N-(2-methoxy-4-(4-(oxetan-3-yl)piperazin-1-yl)phenyl)pyrimidin-2-amine]
inhibition at 3 µM [3]: 97%

COc1cc(N2CCC(N3CCOCC3)CC2)ccc1Nc1ncc(-c2ccc(Cl)c(O[C@@H](C)Cn3cnnn3)c2)cn1 [Example 60, 5-(4-chloro-3-(((2S)-1-(1H-tetrazol-1-yl)propan-2-yl)oxy)phenyl)-N-(2-methoxy-4-(4-(morpholin-4-yl)piperidin-1-yl)phenyl)pyrimidin-2-amine]
inhibition at 3 µM [3]: 99%
